“Also recorded” adds a separate entry of the source.
Legend:
GGTase-I = target: T1, GGTase-I (Rattus norvegicus, UniProt P53610+Q04631); assay: In vitro GGTase-I enzyme assay (IC50, kinetics); format: biochemical
T1 construct: purchased JENA BIOSCIENCE
How it was run: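 Rat GGTase-I (50 nM) with 0.5 μM [3H]-GGPP and 2 μM MBP-RhoA in Tris-HCl pH 7.5, MgCl2, ZnCl2, DTT, 2.5% DMSO, 10 min at 30 °C; radiolabel incorporation by TCA filter binding and scintillation. Kinetics: 5 min reactions varying GGPP or RhoA at fixed other components.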

FTase = target: T2, FTase (Rattus norvegicus, UniProt Q02293+Q04631); assay: In vitro FTase assay (K-Ras4B substrate, [3H]FPP); format: biochemical
T2 construct: purchased JENA BIOSCIENCE
Excerpt: To further characterize the pilot library, inhibitors of protein farnesyltransferase were identified. This was accomplished by using K-Ras4B as a substrate protein, tritiated farnesylpyrophosphate ([^3H]FPP) and protein farnesyltransferase. See Finegold, A. A., Johnson, D. I., Farnsworth, C. C., Gelb, M. H., Judd, S. R., Glomset, J. A. and Tamanoi, F. (1991) Protein geranylgeranyltransferase of Saccharomyces cerevisiae is specific for Cys-Xaa-Xaa-Leu motif and requires the CDC43 gene product but not the DPR1 gene product. Proc. Natl. Acad. Sci. USA 88, 4448-4452. […] On the other hand, the structure of the compounds P1-F11, P2-B7 and P2-E9 resemble those of GGTIs. The FTI P1-F11 resembles the GGTI P1-F10, while the FTI P2-B7 resembles the GGTI P2-C10. The FTI P2-E9 is similar to the GGTI P2-G3. Similarity of some GGTI and FTI compounds may point to common structural features between the two closely related enzymes. As described before, FTase and GGTase I have similar three-dimensional structures and a shared alpha subunit. On the other hand, FTase specific inhibitors may recognize a region(s) that is different between the two enzymes.
Examples 2-8 illustrate assays of bioactivity. These methods are applicable to the compounds of the present invention having the particular linkers and scaffolds described herein, to determine their activity. […] Varying concentrations of the two compounds were added to each enzyme reaction. The FTase (protein farnesyltransferase) assay was carried out using K-Ras4B as a substrate protein, FTase (JENA Bioscience, San Diego, Calif.) and [3H]farnesyl pyrophosphate. Incubation was for 30 min at 37° C.
GGTase-I and FTase activities were determined by following the incorporation of radiolabeled isoprenoid [^3H]-geranylgeranyl or [^3H]-farnesyl into substrate proteins. FTase or GGTase-I (50 nM) were used to initiate reactions containing 0.4 μM of [^3H]-FPP or 0.5 μM of [^3H]-GGPP and 2 μM of MBP-tagged substrates (K-Ras4B for FTase; RhoA for GGTase-I) in 20 μl of buffer {50 mM Tris-HCl (pH 7.5), 10 mM MgCl2, […] and 5 mM DTT}. Inhibitors were added at the indicated concentrations. The final DMSO concentration was 2.5% for all samples.
Reactions were carried out for 10 min at 30° C. The reaction mixture was spotted onto a filter paper, treated with 10% trichloroacetic acid (TCA) followed by ethanol and acetone washing. The filter was counted using a scintillation counter. Kinetic assays in which the GGPP concentration was varied employed fixed concentrations of GGTase-I and RhoA, and reactions were carried out for 5 min. Similarly, fixed concentrations of GGTase-I and GGPP were used when the amount of RhoA was varied.

RabGGTase = target: T3, RabGGTase (Rattus norvegicus, UniProt Q08602+Q08603); assay: In vitro RabGGTase (GGTase-II) assay with REP-1; format: biochemical; conditions: up to 10,000 nM
T3 construct: purchased JENA BIOSCIENCE
T3 sequence (Q08602 1-567): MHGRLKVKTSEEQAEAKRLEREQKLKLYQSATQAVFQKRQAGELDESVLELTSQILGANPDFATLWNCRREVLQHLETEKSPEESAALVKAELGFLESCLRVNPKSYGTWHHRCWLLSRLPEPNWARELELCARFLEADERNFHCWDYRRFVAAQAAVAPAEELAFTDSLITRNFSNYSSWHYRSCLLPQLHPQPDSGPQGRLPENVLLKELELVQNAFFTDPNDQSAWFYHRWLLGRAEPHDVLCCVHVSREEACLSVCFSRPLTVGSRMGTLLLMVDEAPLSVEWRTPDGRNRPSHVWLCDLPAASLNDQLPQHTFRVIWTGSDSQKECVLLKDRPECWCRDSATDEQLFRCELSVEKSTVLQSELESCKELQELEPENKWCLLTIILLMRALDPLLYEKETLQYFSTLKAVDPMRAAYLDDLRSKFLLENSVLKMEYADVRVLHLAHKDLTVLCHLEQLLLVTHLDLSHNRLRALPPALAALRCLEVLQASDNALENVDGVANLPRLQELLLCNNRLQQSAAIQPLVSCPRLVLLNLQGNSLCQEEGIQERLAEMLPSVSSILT
T3 sequence (Q08603 1-331): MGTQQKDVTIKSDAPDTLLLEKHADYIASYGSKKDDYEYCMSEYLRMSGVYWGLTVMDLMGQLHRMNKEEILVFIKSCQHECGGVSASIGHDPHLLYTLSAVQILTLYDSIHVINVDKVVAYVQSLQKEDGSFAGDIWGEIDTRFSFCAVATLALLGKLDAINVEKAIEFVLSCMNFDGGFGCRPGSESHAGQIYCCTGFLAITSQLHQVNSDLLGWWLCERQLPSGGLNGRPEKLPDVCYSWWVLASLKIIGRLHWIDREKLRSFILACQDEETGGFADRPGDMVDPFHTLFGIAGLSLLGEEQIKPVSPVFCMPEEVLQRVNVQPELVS
Experimental: The GGTase-I assay was carried out using RhoA as a substrate protein, GGTase-I (JENA Bioscience) and [3H]geranylgeranyl pyrophosphate. Incubation was for 30 min at 37° C. GGTase-II (or RabGGTase) assay was carried out using YPTI as a substrate protein, GGTase-II (Calbiochem, San Diego, Calif.) plus REP1 (Calbiochem) and [3H]geranylgeranyl pyrophosphate. Incubation was for 30 min at 37° C. FIGS. 20D-20F show the three dimensional structure of GGTase I (D), FTsse (E) and GGTase II (F) which can be obtained from X-ray diffraction studies of protein crystals.
For RabGGTase assays, the reaction contained the following components in 20 μl; 0.625 μl of [^3H]-GGPP (0.7 μM), 25 nM RabGGTase, 0.6 μM REP-1, 0.6 μM purified Rab7 or Ypt1 protein, 40 mM HEPES (pH 7.5), 150 mM NaCl, 5 mM DTT, 3 mM MgCl2 and 0.3% CHAPS. Reactions were carried out for 20 min at 37° C. and the products were analyzed as described above for the GGTase-I reaction. Graphing and Michaelis-Menten analysis were performed using Prism version5 (GraphPad, San Diego Calif.).

K562 cells = assay: K562 cell growth inhibition; format: cell-based, human; conditions: 72 hours
Experimental: K562 cells are a cell line of human erythroleukemia cells. The K562 cells were treated with P3-E5, P5-H6 or GGTI-298 (a known GGTI compound illustrated in FIG. 27) for 72 hours and then cell number was counted using cell counting kit-8 (Dojindo, Gaithersburg, Md.). Cell viability relative to the DMSO control and the known GGTI compound is plotted in FIG. 23.
Cell viability was determined by Cell Counting Kit-8 (CCK-8, Dojindo, Kumamoto, Japan) as described previously (31). Cell viability was calculated relative to the DMSO control. Cell cycle profile was analyzed by flow cytometry as described previously (32).

[1] = system: Rap1 geranylgeranylation in NIH3T3 cells; assay: Unprenylated Rap1 immunoblot in NIH3T3 cells; format: cell-based; conditions: 48 hours
Experimental: The inhibition of GGTase-I catalyzed protein geranylgeranylation was assessed by examining the accumulation of unprenylated Rap1. To measure the level of unprenylated Rap1, cells were cultured in DMEM plus 10% (v/v) FBS overnight, and then DMSO or appropriate inhibitors were added. Incubation was continued for 48 hours. The cells were harvested and lysed in lysis buffer (20 mM Tris-HCl, pH 7.5, 150 mM NaCl, 1 mM EDTA, 1% NP-40 and 1× Protease Inhibitor Cocktail). Whole cell lysates of NIH3T3 cells were electrophoresed on a 12% SDS-PAGE, transferred to nitrocellulose membranes and immunoblotted with the antibody against unprenylated form of Rap1 (Santa Cruz Biotechnology catalog number sc-1482, goat), total-Rap1 (Santa Cruz: sc-65) or actin (Sigma: A4700). Actin was used as a loading control.

[2] = system: H-Ras farnesylation in NIH3T3 cells; assay: H-Ras mobility shift immunoblot in NIH3T3 cells; format: cell-based; conditions: 48 hours
Experimental: K562 cells were treated with modified compounds for 72 hours and then cell number was counted. IC50 values of cell viability relative to the DMSO were measured. […] Data represent the mean+/−S.D. of two measurements from two independent experiments. *, P<0.05 compared with the value for DMSO. […] Whole cell lysates from cells treated with DMSO, P5-H6, P61-A6, GGTI (GGTI-298), FTI (BMS-225975) or RabGGTI (P49-F6) for 48 hours were prepared and processed for immunoblot analysis using antibody against unprenylated form of Rap1 (C: upper panel), Total-Rap1 (C: middle panel), H-Ras (D: upper panel), Rab5b (E: upper panel) or actin (C, D, and E: lower panel). The immunoblots shown represent two independent experiments for each treatment.
This was examined by using a farnesylated protein H-Ras.

[3] = target: GGTase I (K-Ras4B as substrate) (Homo sapiens, UniProt P49354+P53609); assay: GGTase I filter-binding assay, K-Ras4B as substrate (library screens); format: biochemical; conditions: pilot screen 100 μM; library screen 50 μM
Experimental: The pilot library was screened for inhibitors of protein geranylgeranyltransferase type I. Protein prenyltransferase assays were carried out by using filter binding. Two different substrates, RhoA and K-Ras4B, were used for the assay. RhoA ends with the CaaL motif and is an exclusive substrate for GGTase I, while K-Ras4B ends with the CaaX motif and is modified by both GGTase I and FTase.
In the assay, a fixed concentration of 100 μM was used and the results are plotted for the inhibition of RhoA (vertical axis) as well as for K-Ras4B (horizontal axis). […] They are 2,6-diaryl-N-tosyl-1,2,5,6-tetrahydropyridine-3-carboxylic acids, except P2-D5 that is missing an aryl substituent at C2.
The % activity of GGTase I was determined as follows: a working solution that contained each compound in DMSO at the concentration of 1 mM was prepared. The working solution was added to GGTase I reaction mixture so that the final concentration of the compound is 50 μM. GGTase I activity was assayed by incubating [^3H]GGPP with K-Ras4B or RhoA protein in the presence of GGTase I and examining radioactivity incorporated into the substrate protein by spotting onto a filter paper. After washing with TCA, ethanol and acetone, the radioactivity retained on the filter was determined by the use of a scintillation counter. GGTase I activity in the presence of DMSO was taken as a 100% value and the activity in the presence of the compound was shown as percent activity compared with the 100% value. […] For 6-aryl-4-mercapto-N-sulfonyl-piperidine-3-carboxylic acid 11 the 4-mercapto substituent appeared critical to endowing GGTase inhibitory activity. […] 4-Chlorobenzylthio substituent was the next best; 12 compounds out of 21 containing the 4-chlorobenzylthio moiety were active. 4-Benzylthio substituent was also good; 7 piperidines out of 21 bearing 4-benzylthio group were active. […] 19 imines (C15>C12=C41>C40>C01=C11>C05=C10=C30=C35=C37=C38>C02, C03, C04, C06, C39=C43) out of 21 appeared in the GGTIs. […] This corresponds to 47 6-aryl-4-mercapto-N-sulfonyl-piperidine-3-carboxylic acids out of 357 compounds.
A collection of 138 heterocycles was screened for their ability to inhibit the activity of human GGTase-I to geranylgeranylate K-Ras4B or RhoA. Purified GGTase-I was incubated with its substrate protein K-Ras4B or RhoA, [^3H]GGPP, and the 138 compounds. After 30 min, the degree of incorporation of tritiated geranylgeranyl groups was measured using a scintillation counter.

| Structure (SMILES) | specificity among GGTase-I, FTase and GGTase-II (GGTase-I; FIGS. 20A-20C, varying concentrations) | Ki (GGTase-I; Michaelis-Menten analysis) | IC50 (GGTase-I; Tables 5, 14, read-out: In vitro (enzyme assay) IC50, GGTase I) | mode of GGTase-I inhibition with respect to GGPP (GGTase-I; varying GGPP, fixed RhoA) | mode of GGTase-I inhibition with respect to the protein substrate (RhoA) (GGTase-I; varying RhoA, fixed GGPP) | inhibition of FTase activity (FTase; concentration increased to 50,000 nM) | inhibition of RabGGTase (RabGGTase) | inhibition of proliferation of K562 cells (K562 cells; FIG. 23) | IC50 (K562 cells; Homo sapiens, K562, FIG. 36A, read-out: IC50, inhibition of proliferation of K562 cells) | appearance of the unprenylated (unprocessed) Rap1 band [1] | appearance of the unprenylated Rap1 band at 2.5 μM ([1]; 2.5 μM) | mobility shift of H-Ras (protein farnesylation) [2] | relative inhibition of RhoA-driven versus K-Ras4B-driven GGTase I activity [3] | inhibition of GGTase I (FIG. 16 controls) (GGTase-I) | inhibition of FTase activity (FIG. 16) (FTase; P3-D9, P3-E5: concentration increased to 100 (unit not given)) |
| --- | --- | --- | --- | --- | --- | --- | --- | --- | --- | --- | --- | --- | --- | --- | --- |
| Cc1ccccc1S(=O)(=O)N1[C@@H](c2ccc(Cl)cc2)C(C(=O)O)=C[C@H]1C(C)(C)C (relative stereo) [P5-H6] | specifically inhibit GGTase I | 0.408 ± 0.032 µM | 0.466 µM | do not compete with GGPP; also recorded: uncompetitive inhibitors | compete with a substrate protein; also recorded: competitive inhibitors | no significant inhibition | little inhibition | inhibit the growth of the K562 cells | 20 µM | in a dose dependent manner; also recorded: inhibits Rap1 geranylgeranylation | not seen | – | – | – | – |
| Cn1cncc1CN1C[C@@H](Cc2ccccc2)N(S(=O)(=O)c2cccs2)Cc2cc(C#N)ccc21 [BMS-225975] | – | – | – | – | – | – | – | – | – | – | – | slowed the mobility | – | – | – |
| COC(=O)[C@H](CC(C)C)NC(=O)c1ccc(NC[C@@H](N)CS)cc1-c1cccc2ccccc12 [GGTI-298, reference compound] | – | – | – | – | – | – | – | – | – | – | – | no such mobility shift | inhibit RhoA-driven GGTase I activity slightly better than K-Ras4B-driven GGTase I activity | inhibits GGTase I | little inhibition |

— patent publication US8815935B2, “Inhibitors of protein prenyltransferases” (The Regents of the University of California, priority 2008, dated 2014)
